Measurements published in the supplement of paper PMC11208160.

assay: recombinant barcode read abundance after kanamycin selection (control-corrected) (log10(CPM+1)); higher = more efficient recombination; sequences stand for … in AGTGCAGAGAAAATCGGCCAGTTTTCTCTGCCTGCAGTCCGCATGCCGT…AGATTTATGCAGCGGACTGCCTTTCTCCCAAAGTGATAAACCGGACAGTATCATGGACCGGTTTTCCCGGTAATCCGTATTTGCAAGGTTGGTTTCACT; site = the 11-nt target
Summary of the method: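 Targets and IS621 bridge RNA target-binding loops were paired in oligos, each with a promoter, a barcode and the J23119-driven first 104 bridge RNA bases. A vector carrying the remaining 73 bp and a T7-inducible recombinase received these by Gibson cloning, and the pool was co-electroporated into E. coli with a donor plasmid. Duplicate plates contained chloramphenicol/ampicillin LB agar (control) or chloramphenicol/ampicillin/kanamycin with 0.1 mM IPTG. Recombination efficiency comes from averaged, control-corrected counts per million of recombinant-junction barcodes, reported as log10(CPM+1).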
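Also: IS621 recombinase and bridge RNA in Escherichia coli cells.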

Q: With “CGGACTTCTTGGGTTCTAACCTGTTGCCT (site CGGACTTCTAG)” as the sequence, how does the “recombinant barcode read abundance (log10)” value read?
A: Its value is 0.0521.

Q: For “CGGACTTCTTGGGTTCTAACCTGTTGCCT (site CTGACTTCTAG)”, which “recombinant barcode read abundance (log10)” value is on record?
A: Its value is 0.0412.

Q: With “CGGAGAGCTTGGGTTCTAACCTGTTGCCT (site CAGAGAGCTAG)” as the sequence, how does the “recombinant barcode read abundance (log10)” value read?
A: The value was 0.402.

Q: With “CGGAGAGCTTGGGTTCTAACCTGTTGCCT (site CCGAGAGCTAG)” as the sequence, how does the “recombinant barcode read abundance (log10)” value read?
A: Its value is 0.433.

Q: With “CGGAGAGCTTGGGTTCTAACCTGTTGCCT (site CGGAGAGCTAG)” as the sequence, how does the “recombinant barcode read abundance (log10)” value read?
A: The value was 1.83.

Q: With “CGGAGAGCTTGGGTTCTAACCTGTTGCCT (site CTGAGAGCTAG)” as the sequence, how does the “recombinant barcode read abundance (log10)” value read?
A: The value was 0.

Q: Which “recombinant barcode read abundance (log10)” value does the source give for “CGGAGCCCTTGGGTTCTAACCTGTTGCCT (site CAAAGCCCTAG)” here?
A: The value was 0.0117.

Q: Which “recombinant barcode read abundance (log10)” value does the source give for “CGGAGCCCTTGGGTTCTAACCTGTTGCCT (site CGGAGCCCTAG)” here?
A: The value was 1.27.

Q: For “CGGATCCCTTGGGTTCTAACCTGTTGCCT (site CAGATCCCTAG)”, which “recombinant barcode read abundance (log10)” value is on record?
A: The value was 0.555.

Q: Which “recombinant barcode read abundance (log10)” value does the source give for “CGGATCCCTTGGGTTCTAACCTGTTGCCT (site CCGATCCCTAG)” here?
A: Its value is 0.159.

Q: With “CGGATCCCTTGGGTTCTAACCTGTTGCCT (site CGGATCCCTAG)” as the sequence, how does the “recombinant barcode read abundance (log10)” value read?
A: Its value is 1.39.

Q: Which “recombinant barcode read abundance (log10)” value does the source give for “CGGATCCCTTGGGTTCTAACCTGTTGCCT (site CTGATCCCTAG)” here?
A: Its value is 0.284.

Q: For “CGGCGTACTTGGGTTCTAACCTGTTGCCT (site CGACGTACTAG)”, which “recombinant barcode read abundance (log10)” value is on record?
A: The value was 0.14.

Q: Which “recombinant barcode read abundance (log10)” value does the source give for “CGGCGTACTTGGGTTCTAACCTGTTGCCT (site CGCCGTACTAG)” here?
A: The value was 0.103.

Q: With “CGGCGTACTTGGGTTCTAACCTGTTGCCT (site CGGCGTACTAG)” as the sequence, how does the “recombinant barcode read abundance (log10)” value read?
A: Its value is 0.959.

Q: For “CGGCGTACTTGGGTTCTAACCTGTTGCCT (site CGTCGTACTAG)”, which “recombinant barcode read abundance (log10)” value is on record?
A: The value was 0.069.

Q: Which “recombinant barcode read abundance (log10)” value does the source give for “CGGCGTCCTTGGGTTCTAACCTGTTGCCT (site CGGCGTCCTAG)” here?
A: The value was 1.24.

Q: With “CGGCGTCCTTGGGTTCTAACCTGTTGCCT (site CGGCGTCCTCG)” as the sequence, how does the “recombinant barcode read abundance (log10)” value read?
A: Its value is 0.0739.

Q: Which “recombinant barcode read abundance (log10)” value does the source give for “CGGCGTCCTTGGGTTCTAACCTGTTGCTA (site CGGAGTCCTTA)” here?
A: Its value is 0.0265.

Q: With “CGGCGTCCTTGGGTTCTAACCTGTTGCTA (site CGGCGTCCTTA)” as the sequence, how does the “recombinant barcode read abundance (log10)” value read?
A: The value was 0.452.

Q: With “CGGCGTCCTTGGGTTCTAACCTGTTGCTA (site CGGGGTCCTTA)” as the sequence, how does the “recombinant barcode read abundance (log10)” value read?
A: Its value is 0.113.

Q: Which “recombinant barcode read abundance (log10)” value does the source give for “CGGCGTCCTTGGGTTCTAACCTGTTGCTA (site CGGTGTCCTTA)” here?
A: The value was 0.42.

Q: For “CGGCTACCTTGGGTTCTAACCTGTTGCCT (site CAGCTACCTAG)”, which “recombinant barcode read abundance (log10)” value is on record?
A: The value was 0.194.

Q: With “CGGCTACCTTGGGTTCTAACCTGTTGCCT (site CCGCTACCTAG)” as the sequence, how does the “recombinant barcode read abundance (log10)” value read?
A: Its value is 0.13.

Q: With “CGGCTACCTTGGGTTCTAACCTGTTGCCT (site CGGCTACCTAG)” as the sequence, how does the “recombinant barcode read abundance (log10)” value read?
A: Its value is 1.96.

Q: With “CGGCTACCTTGGGTTCTAACCTGTTGCCT (site CTGCTACCTAG)” as the sequence, how does the “recombinant barcode read abundance (log10)” value read?
A: Its value is 0.429.

Q: Which “recombinant barcode read abundance (log10)” value does the source give for “CGGCTCACTTGGGTTCTAACCTGTTGCTA (site CGGCACACTAA)” here?
A: Its value is 0.0598.

Q: For “CGGCTCACTTGGGTTCTAACCTGTTGCTA (site CGGCTCACTTA)”, which “recombinant barcode read abundance (log10)” value is on record?
A: The value was 2.31.

Q: For “CGGCTGACTTGGGTTCTAACCTGTTGCCT (site CGGCTCACTAG)”, which “recombinant barcode read abundance (log10)” value is on record?
A: Its value is 0.446.

Q: With “CGGCTGACTTGGGTTCTAACCTGTTGCCT (site CGGCTGACTAG)” as the sequence, how does the “recombinant barcode read abundance (log10)” value read?
A: Its value is 1.46.

Q: For “CGGGCCTCTTGGGTTCTAACCTGTTGCTA (site CGGGCCTCTAA)”, which “recombinant barcode read abundance (log10)” value is on record?
A: The value was 0.185.

Q: With “CGGGCCTCTTGGGTTCTAACCTGTTGCTA (site CGGGCCTCTCA)” as the sequence, how does the “recombinant barcode read abundance (log10)” value read?
A: The value was 0.

Q: Which “recombinant barcode read abundance (log10)” value does the source give for “CGGGCCTCTTGGGTTCTAACCTGTTGCTA (site CGGGCCTCTGA)” here?
A: The value was 1.27.

Q: For “CGGGCCTCTTGGGTTCTAACCTGTTGCTA (site CGGGCCTCTTA)”, which “recombinant barcode read abundance (log10)” value is on record?
A: The value was 2.38.

Q: For “CGGGCCTCTTGGGTTCTAACCTGTTGCTT (site CGGGCCTCTAA)”, which “recombinant barcode read abundance (log10)” value is on record?
A: Its value is 2.03.

Q: With “CGGGCCTCTTGGGTTCTAACCTGTTGCTT (site CGGGCCTCTCA)” as the sequence, how does the “recombinant barcode read abundance (log10)” value read?
A: Its value is 0.148.

Q: Which “recombinant barcode read abundance (log10)” value does the source give for “CGGGCCTCTTGGGTTCTAACCTGTTGCTT (site CGGGCCTCTGA)” here?
A: The value was 0.469.

Q: For “CGGGCCTCTTGGGTTCTAACCTGTTGCTT (site CGGGCCTCTTA)”, which “recombinant barcode read abundance (log10)” value is on record?
A: Its value is 0.336.

Q: For “CGGGCGCCTTGGGTTCTAACCTGTTGCGG (site CGGCCGACTCC)”, which “recombinant barcode read abundance (log10)” value is on record?
A: Its value is 0.0157.

Q: Which “recombinant barcode read abundance (log10)” value does the source give for “CGGGCGCCTTGGGTTCTAACCTGTTGCGG (site CGGGCGCCTCC)” here?
A: The value was 2.14.

Q: Which “recombinant barcode read abundance (log10)” value does the source give for “CGGGTGCCTTGGGTTCTAACCTGTTGCCT (site CAGGTGCCTAG)” here?
A: Its value is 0.379.

Q: Which “recombinant barcode read abundance (log10)” value does the source give for “CGGGTGCCTTGGGTTCTAACCTGTTGCCT (site CCGGTGCCTAG)” here?
A: The value was 0.717.

Q: For “CGGGTGCCTTGGGTTCTAACCTGTTGCCT (site CGGGTGCCTAG)”, which “recombinant barcode read abundance (log10)” value is on record?
A: Its value is 1.66.

Q: Which “recombinant barcode read abundance (log10)” value does the source give for “CGGGTGCCTTGGGTTCTAACCTGTTGCCT (site CTGGTGCCTAG)” here?
A: The value was 0.0879.

Q: With “CGGTAACCTTGGGTTCTAACCTGTTGCCT (site AGGTAACCTAG)” as the sequence, how does the “recombinant barcode read abundance (log10)” value read?
A: Its value is 0.429.

Q: With “CGGTAACCTTGGGTTCTAACCTGTTGCCT (site CGGTAACCTAG)” as the sequence, how does the “recombinant barcode read abundance (log10)” value read?
A: Its value is 0.761.

Q: For “CGGTAACCTTGGGTTCTAACCTGTTGCCT (site GGGTAACCTAG)”, which “recombinant barcode read abundance (log10)” value is on record?
A: Its value is 0.185.

Q: For “CGGTAACCTTGGGTTCTAACCTGTTGCCT (site TGGTAACCTAG)”, which “recombinant barcode read abundance (log10)” value is on record?
A: Its value is 0.753.

Q: For “CGGTAGTCTTGGGTTCTAACCTGTTGCTT (site CGGTAGTCTAA)”, which “recombinant barcode read abundance (log10)” value is on record?
A: Its value is 1.41.

Q: Which “recombinant barcode read abundance (log10)” value does the source give for “CGGTAGTCTTGGGTTCTAACCTGTTGCTT (site CGGTAGTCTCA)” here?
A: Its value is 0.0659.

Q: With “CGGTGTCCTTGGGTTCTAACCTGTTGCTA (site CGGAGTCCTTA)” as the sequence, how does the “recombinant barcode read abundance (log10)” value read?
A: The value was 0.0633.

Q: For “CGGTGTCCTTGGGTTCTAACCTGTTGCTA (site CGGCGTCCTTA)”, which “recombinant barcode read abundance (log10)” value is on record?
A: The value was 0.586.

Q: Which “recombinant barcode read abundance (log10)” value does the source give for “CGGTGTCCTTGGGTTCTAACCTGTTGCTA (site CGGGGTCCTTA)” here?
A: Its value is 0.225.

Q: For “CGGTGTCCTTGGGTTCTAACCTGTTGCTA (site CGGTGTCCTTA)”, which “recombinant barcode read abundance (log10)” value is on record?
A: The value was 1.33.

Q: For “CGGTTTCCTTGGGTTCTAACCTGTTGCCT (site CGGTTTCCTAG)”, which “recombinant barcode read abundance (log10)” value is on record?
A: The value was 0.848.

Q: For “CGGTTTCCTTGGGTTCTAACCTGTTGCCT (site CTATTTCCTAG)”, which “recombinant barcode read abundance (log10)” value is on record?
A: Its value is 0.0218.

Q: For “CGTAAGTCTTGGGTTCTAACCTGTTGCCT (site CGTAAGTCTAG)”, which “recombinant barcode read abundance (log10)” value is on record?
A: The value was 1.11.

Q: Which “recombinant barcode read abundance (log10)” value does the source give for “CGTAAGTCTTGGGTTCTAACCTGTTGCCT (site TATAAGTCTAG)” here?
A: Its value is 0.0991.

Q: With “CGTACGACTTGGGTTCTAACCTGTTGCAT (site CGTACGACTAT)” as the sequence, how does the “recombinant barcode read abundance (log10)” value read?
A: The value was 0.215.
